# Data reported in US9919998B2, “Antibacterial agents: Nα-aroyl-N-aryl-phenylalaninamides” (priority 2014, dated 2018).
# Experiments:
# Assay type in all cases: cell-based
# [1] = tested on: Mycobacterium smegmatis ATCC 19420; assay: Broth microdilution MIC, M. smegmatis; settings: Mycolicibacterium smegmatis, ATCC19420, M. smegmatis ATCC 19420; read-out: MIC Mycobacterium smegmatis ATCC 19420
# From the text: MICs in Mycobacterium smegmatis ATCC 19420 and Mycobacterium smegmatis ATCC 19420 derivatives were quantified using broth microdilution assays as described [Clinical and Laboratory Standards Institute (CLSI/NCCLS) (2009) Methods for Dilution Antimicrobial Susceptibility Tests for Bacteria That Grow Aerobically; Approved Standard, Eighth Edition. CLIS Document M07-A8 (CLIS, Wayne Pa.)].
# [2] = tested on: Mycobacterium tuberculosis H37Rv; assay: Microplate Alamar Blue assay (MABA) MIC, M. tuberculosis; settings: read-out: MIC Mycobacterium tuberculosis H37Rv
# From the text: (§1) Minimal inhibitory concentrations (MICs) in Mycobacterium tuberculosis H37Rv and Mycobacterium avium ATCC 25291 were quantified using microplate Alamar Blue assays as described (MABA; [Collins, L. & Franzblau, S. (1997) Microplate Alamar Blue assay versus BACTEC 460 system for high-throughput screening of compounds against Mycobacterium tuberculosis and Mycobacterium avium. Antimicrob. Agents Chemother. 41, 1004-1009]).
# [3] = tested on: Vero E6 ATCC CRL1586 cells; assay: Mammalian-cell cytotoxicity, minimal cytotoxic concentration (CellTiter96)
# Protocol: Minimal cytotoxic concentrations (MCCs) against mammalian cells in culture were determined using Vero E6 ATCC CRL1586 cells and the CellTiter96 assay kit (Promega, Inc.). […]
# [4] = tested on: Mycobacterium avium ATCC 25291; assay: Microplate Alamar Blue assay (MABA) MIC, M. avium; settings: ATCC25291, M. avium ATCC 25291
# From the text: as §1
Compound,MIC [1] [µg/mL],MIC [2] [µg/mL],MCC mammalian cells Vero E6 ATCC CRL1586 [3] [µg/mL],MIC [4] [µg/mL]
O=C(NC(Cc1ccccc1)C(=O)Nc1ccccc1C(F)F)c1ccccc1 (stereo not drawn) [I-148],3.12,6.25,100,> 50
"COc1ccc(Cl)cc1NC(=O)C(Cc1ccccc1)NC(=O)c1ccccc1F (stereo not drawn) [IX-278, N-(1-((5-chloro-2-methoxyphenyl)amino)-1-oxo-3-phenylpropan-2-yl)-2-fluorobenzamide]",0.39,0.78,29,2.3
Cc1cccc(NC(=O)C(Cc2ccccc2)NC(=O)c2ccccc2)c1C (stereo not drawn) [I-105],0.39,3.12,21,12.5
"O=C(NC(Cc1ccccc1)C(=O)Nc1cccc2c1OCCO2)c1ccccc1Cl (stereo not drawn) [IX-65, 2-chloro-N-(1-((2,3-dihydrobenzo[b][1,4]dioxin-5-yl)amino)-1-oxo-3-phenylpropan-2-yl)benzamide]",0.78,3.12,18,6.25
O=C(NC(Cc1ccccc1)C(=O)Nc1cc(F)ccc1N1CCNCC1)c1cccc2[nH]ccc12 (stereo not drawn) [IX-243],0.19,6.25,11,0.78
"COc1ccccc1NC(=O)C(Cc1ccccc1)NC(=O)c1cccc2[nH]ccc12 (stereo not drawn) [IX-43, N-(1-((2-methoxyphenyl)amino)-1-oxo-3-phenylpropan-2-yl)-1H-indole-4-carboxamide]",0.39,6.25,59,12.5
"COc1ccc(F)cc1NC(=O)C(Cc1ccc(O)cc1)NC(=O)c1cccs1 (stereo not drawn) [IX-206, N-(1-((5-fluoro-2-methoxyphenyl)amino)-3-(4-hydroxyphenyl)-1-oxopropan-2-yl)thiophene-2-carboxamide]",0.195,0.78,70,0.39
"O=C(NC(Cc1ccccc1)C(=O)Nc1cccc2[nH]nnc12)c1ccccc1 (stereo not drawn) [IX-223, N-(1-((1H-benzo[d][1,2,3]triazol-4-yl)amino)-1-oxo-3-phenylpropan-2-yl)benzamide]",0.78,25,64,50
"Cc1ccc(Cl)cc1NC(=O)C(Cc1ccccc1)NC(=O)c1cccc2[nH]ccc12 (stereo not drawn) [IX-53, N-(1-((5-chloro-2-methylphenyl)amino)-1-oxo-3-phenylpropan-2-yl)-1H-indole-4-carboxamide]",0.39,3.12,34,3.12
"Cc1ccc(Cl)cc1NC(=O)C(Cc1ccccc1)NC(=O)c1ccccc1C (stereo not drawn) [IX-67, N-(1-((5-chloro-2-methylphenyl)amino)-1-oxo-3-phenylpropan-2-yl)-2-methylbenzamide]",0.19,1.56,8,1.56
"O=C(NC(Cc1ccc(O)cc1)C(=O)Nc1ccccc1N1CCOCC1)c1cccs1 (stereo not drawn) [IX-183, N-(3-(4-hydroxyphenyl)-1-((2-morpholinophenyl)amino)-1-oxopropan-2-yl)thiophene-2-carboxamide]",0.097,1.56,>100,6.25
"Cn1nnc2cccc(NC(=O)C(Cc3ccccc3)NC(=O)c3ccccc3)c21 (stereo not drawn) [IX-224, N-(1-((1-methyl-1H-benzo[d][1,2,3]triazol-7-yl)amino)-1-oxo-3-phenylpropan-2-yl)benzamide]",0.39,6.25,>100,25
"Cc1ccc(F)cc1NC(=O)C(Cc1ccc(O)cc1)NC(=O)c1ccccc1F (stereo not drawn) [IX-184, 2-fluoro-N-(1-((5-fluoro-2-methylphenyl)amino)-3-(4-hydroxy-phenyl)-1-oxopropan-2-yl)benzamide]",0.39,1.56,77,3.12
"O=C(NC(Cc1ccccc1)C(=O)Nc1ccccc1N1CCSCC1)c1ccccc1 (stereo not drawn) [IX-149, N-(1-oxo-3-phenyl-1-((2-thiomorpholinophenyl)amino)propan-2-yl)-benzamide]",0.095,3.12,>100,> 50
CCCc1ccccc1NC(=O)C(Cc1ccccc1)NC(=O)c1ccccc1 (stereo not drawn) [I-126],1.56,> 50,10,> 50
